A value given as a limit tells only on which side of the number the result lay.

Results on 16 compounds are retold here after patent publication US5994359A, “Imino oxyphenyl acetic acid derivatives, methods and intermediates for their preparation and use thereof” (BASF Aktiengesellschaft, priority 1995, dated 1999).

Test [1] deals with mitochondria of the yeast Saccharomyces cerevisiae. The experiment in a line: Inhibition of mitochondrial respiration (photometric cytochrome c reduction rate in isolated mitochondria). The test is classed as biochemical. As to conditions: Saccharom. cerevisiae mitochondria; relative to reference substance enol ether stilbene. From the text:
To determine the effect of the compounds according to the invention on mitochondrial respiration, it is first necessary to isolate the mitochondria from the test organisms. In the case of the yeast Saccharomyces cerevisiae, a 30 to 40% cell suspension of the fungus is disrupted, to this end, in an aqueous solution of 0.6 M Mannitol+0.01 M tris[hydroxymethyl]aminomethane+0.002 M disodium ethylenediaminetetraacetate (pH 6.8) using a glass bead mill, and the extract is fractionated by means of differential centrifugation at 1000×g and 12000×g. The mitochondria are in the precipitate of the 12000×g centrifugation.
The effect of the compounds on the respiration chain is determined by adding a solution of the test compound in dimethyl sulfoxide to a suspension of mitochondria in an aqueous solution of 0.01 M tris[hydroxymethyl]aminomethane+0.65 M sorbitol+0.01 M KH2 PO4 +0.01 M KCl+0.0004 M disodium ethylenediamine-tetraacetate+0.3% bovine serum albumin+0.0007 M KCN+6×10^-6 ubiquinone-50+0.01 M sodium succinate+0.15% cytochrome c (pH 7.5), and the reduction rate of the cytochrome c is determined photometrically on the basis of the increased absorption at 546 nm. A batch with a corresponding amount of pure DMSO is used as control. The inhibitory value for the active ingredient at the concentration shown in each case is then calculated as follows. [formula] where ΔE is the difference in absorption, At the difference in time, [formula]
In the table which follows, the action of a series of compounds according to the invention as respiration inhibitors on the mitochondria of the yeast Saccharomyces cerevisiae, the phyto-pathogenic fungus Drechslera sorokiniana and the common housefly Musca domestics.
In each case, the inhibition of mytochondrial respiration is given as I50 value (this being the concentration of test substance where a 50% inhibition is observed) and as F value, this being a relative value defined as follows: [formula]
The reference substance is the so-called enol ether stilbene, of the following formula: [drawing 80]

Test [2] has as its system Tetranychus telarius. In words: Tetranychus telarius (greenhouse red spider mite), contact action. The test is classed as in vivo. The conditions noted are these: 120 h, infested dwarf beans in pots, assessed after 5 days in the greenhouse, read-out: limit concentration (lowest concentration still causing 80-100% inhibition or mortality). From the text:
(§1) The active ingredients were formulated
(§2) a) as a 0.1% strength solution in acetone or
(§3) b) as a 10% emulsion in a mixture of 70% by weight of cyclohexanol, 20% by weight of Nekanil® LN (Lutensol® AP6, wetting agent having emulsifying and dispersant action based on ethoxylated alkylphenols) and 10% by weight of Emulphor® EL emulsifier based on ethoxylated fatty alcohols)
(§4) and diluted to give the desired concentraton, using acetone in the case of a) and water in the case of b).
(§5) After the experiments had been concluded, in each case the lowest concentration at which the compounds still caused an 80-100% inhibition or mortality in comparison with untreated controls was determined (limit or minimum concentration).
After 5 days in the greenhouse, the result of the control measures was determined by means of a stereomicroscope.

The subject of test [3] is Aphis fabae. The experiment in a line: Aphis fabae (blackbean aphid), contact action. As to conditions: infested dwarf beans (Vicia faba), mortality after 24 hours, read-out: limit concentration (lowest concentration still causing 80-100% inhibition or mortality). The test is classed as in vivo.
Text: as §1, §2, §3, §4, §5
Severely infested dwarf beans (Vicia faba) were treated with the aqueous preparation of active ingredient. After 24 hours, the mortality rate was determined.

Test [4] relates to Heliothis virescens. In words: Heliothis virescens (tobacco budworm), contact/stomach action. The test is classed as in vivo. The conditions noted are these: tobacco plants, 3rd instar larvae, mortality and antifeeding effect after 48 hours, read-out: limit concentration (lowest concentration still causing 80-100% inhibition or mortality).
Text: as §1, §2, §3, §4, §5
Tobacco plants approximately 10 cm high were treated with the aqueous preparation of active ingredient. After the plants had dried, they were populated with in each case 10 3rd instar larvae. Mortality and antifeeding effect were assessed after 48 hours.

Turning to `CON=C(C(=O)OC)c1ccccc1ON=C(C)c1cccc(C)c1` [I(1).1, methyl methoxyimino-[2-(1-meta-tolylethylideneaminooxy)phenyl]acetate], in test [1], the “F value (relative value)” value turned out to be 0.96.

With `CNC(=O)C(=NOC)c1ccccc1ON=C(C)c1cccc(C)c1` [I(1).2, 2-methoxyimino-N-methyl-2-[2-(1-meta-tolylethylideneamino-oxy)phenyl]acetamide], the “F value (relative value)” value in test [1] is given as 11.

`CON=C(C)C(C)=NOc1ccccc1C(=NOC)C(=O)OC` [I(2).2, methyl methoxyimino-[2-(2-methoxyimino-1-methylpropylideneaminooxy)phenyl]acetate]: in test [1], the “F value (relative value)” value was 0.43. In test [2], the minimal effective concentration is at most 200 µg/mL.

As to `CNC(=O)C(=NOC)c1ccccc1ON=C(C)C(C)=NOC` [I(2).3, N-methyl-methoxyimino-[2-(2-methoxyimino-1-methylpropylideneaminooxy)phenyl]acetamide], the “F value (relative value)” value in test [1] is 9.6.

In the case of `COC=C(C(=O)OC)c1ccccc1ON=C(C)C(C)=NOC(C)C` [I(2).6], the minimal effective concentration in test [2] is at most 200 µg/mL.

For `COC=C(C(=O)OC)c1ccccc1ON=C(C)C(C)=NOC` [I(2).7, methyl 3-methoxy-[2-(2-methoxyimino-1-methyl-propylideneaminooxy)phenyl]acrylate], in test [2], the minimal effective concentration is at most 200 µg/mL.

`CNC(=O)C(=NOC)c1ccccc1ON=C(C)C(C)=NOC(C)C` [I(2).8]: in test [2], the minimal effective concentration was at most 200 µg/mL.

For `CCON=C(C)C(C)=NOc1ccccc1C(=NOC)C(=O)OC` [I(2).9], the minimal effective concentration in test [3] was 200 µg/mL; in test [2], at most 200 µg/mL.

For the compound `CON=C(C(=O)OC)c1ccccc1ON=C(C)C(C)=NOC(C)C` [I(2).13], in test [2], the minimal effective concentration is at most 200 µg/mL.

Regarding `CCC(=NOc1ccccc1C(=COC)C(=O)OC)C(C)=NOC` [I(2).14], in test [2], the minimal effective concentration was at most 200 µg/mL.

Consider `CCON=C(C)C(C)=NOc1ccccc1C(=COC)C(=O)OC` [I(2).15], for which, in test [2], the minimal effective concentration is at most 200 µg/mL.

`C#CCON=C(C)C(C)=NOc1ccccc1C(=NOC)C(=O)OC` [I(2).16]: the minimal effective concentration in test [2] was at most 200 µg/mL.

Consider `C#CCON=C(C)C(C)=NOc1ccccc1C(=COC)C(=O)OC` [I(2).17], for which the minimal effective concentration is 40 µg/mL in test [4] and at most 200 µg/mL in test [2].

Consider `CCC(=NOC)C(C)=NOc1ccccc1C(=NOC)C(=O)NC` [I(2).19], for which, in test [2], the minimal effective concentration was at most 200 µg/mL.

`CCC(=NOC)C(C)=NOc1ccccc1C(=COC)C(=O)OC` [I(2).20]: the minimal effective concentration in test [2] was at most 200 µg/mL.

With `CCC(=NOC)C(C)=NOc1ccccc1C(=NOC)C(=O)OC` [I(2).21], the minimal effective concentration in test [2] is at most 200 µg/mL.
